Where two headings read alike, the source gives them in different places.
What was measured:
CMK cells = assay: CMK assay for thrombopoietin (TPO) induction of platelet antigen GPIIbIIIa expression; conditions: for CMK: Thrombopoietic activity, concentration at which active; for minimal effective concentration: Homo sapiens, CMK
DAMI cells = assay: DAMI assay measuring endomitotic activity (polyploidization) of DAMI cells; conditions: for DAMI: Thrombopoietic activity, concentration at which active
[1] = Thrombopoeitic activity in various assays (not specified further); conditions: for thrombopoeitic activity in various assays: no activity at concentrations as high as 200 µM
C57BL6 mice = assay: Thrombopoietin (TPO) in vivo assay (Mouse Platelet Rebound Assay); conditions: @ 2 mg/mouse/d; IP injections on days 5 and 6 after anti-platelet serum
Protocol: Thrombopoietin (TPO) in vivo assay (Mouse Platelet Rebound Assay)
In vivo Assay for ³⁵S Determination of Platelet Production
C57BL6 mice (obtained from Charles River) were injected intraperitoneally (IP) with 1 ml goat anti-mouse platelet serum (6 amps) on day 1 to produce thrombocytopenia. On days 5 and 6, mice were given two IP injections of the factor or PBS as the control. On day 7, thirty µCi of Na₂³⁵SO₄ in 0.1 ml saline were injected intravenously and the percent ³⁵S incorporation of the injected dose into circulating platelets was measured in blood samples obtained from treated and control mice. Platelet counts and leukocyte counts were made at the same time from blood obtained from the retro-orbital sinus.

[2] = after 1-2 weeks treatment; patient had 37,000-58,000/µl before; cited from earlier work
[3] = read-out: active at concentration in the CMK assay
[4] = read-out: active at concentration in the DAMI assay
[5] = read-out: CMK(µM), Thrombopoietic activity, concentration at which active, 'inactive @200' given as >200
[6] = read-out: DAMI(µM), Thrombopoietic activity, concentration at which active, 'inactive @200' given as >200
[7] = read-out: active / inactive at concentration in the DAMI assay

Row | SMILES | minimal effective concentration (CMK cells; [3]) [µM] | minimal effective concentration (CMK cells; [5]) [µM] | minimal effective concentration (DAMI cells; [6]) [µM] | further results
1 | NC1(c2ccccc2Cl)CCC=CC1=O (single isomer, unassigned; (+)) [(+)-V, (+)-6-amino-6-(2-chlorophenyl)-2-cyclohexen-1-one] | – | – | – | active at concentration in the CMK assay (CMK cells): 6 µm; CMK (CMK cells; 'inactive @200' given as >200): 6 µM; DAMI (DAMI cells; 'inactive @200' given as >200): 12 µM
2 | NC1(c2ccccc2Cl)CCC=CC1=O (single isomer, unassigned; (-)) [(-)-V, (-)-6-amino-6-(2-chlorophenyl)-2-cyclohexen-1-one] | 6 | – | – | CMK (CMK cells; 'inactive @200' given as >200): 6 µM; DAMI (DAMI cells; 'inactive @200' given as >200): 12 µM; minimal effective concentration (DAMI cells; [4]): 6 µM
3 | O=C1C=CC(=O)c2ccccc21 [1,4-naphthoquinone, reference compound] | – | < 6 | > 200 | –
4 | NCC(=O)NC1(c2ccccc2Cl)CCC=CC1=O (stereo not shown) [EXAMPLE IV, 6-(2-aminoacetyl)amino-6-(2-chlorophenyl)-2-cyclohexen-1-one] | 6 | – | – | minimal effective concentration (DAMI cells; [4]): 6 µM
5 | CSCCC(=O)NC1(c2ccccc2Cl)CCC=CC1=O (stereo not shown) [EXAMPLE V, 6-(2-chlorophenyl)-6-(3-(methylthio)propanoyl)amino-2-cyclohexen-1-one] | 6 | – | – | –
6 | NC1(c2ccccc2Cl)CCCCC1=O (stereo not shown) [IV, 2-(amino)-2-(2-chlorophenyl) cyclohexanone, reference compound] | – | > 200 | > 200 | thrombopoeitic activity in various assays [1]: > 200 µM
7 | NC1(c2ccccc2Cl)CCC=CC1=O (stereo not shown) [V, 6-amino-6-(2-chlorophenyl)-2-cyclohexen-1-one] | 15 | 6 | – | DAMI (DAMI cells; 'inactive @200' given as >200): 25 µM; minimal effective concentration (DAMI cells; [7]): 30 µM; In vivo(% ctl.@ mg/mouse/d) (C57BL6 mice): 131 @ 2 % ctl.
8 | CC(=O)NC1(c2ccccc2Cl)CCC=CC1=O (stereo not shown) [VI, 6-acetylamino-6-(2-chlorophenyl)-2-cyclohexen-1-one] | – | 6 | 12 | thrombopoeitic activity compared with 5,6-dehydronorketamine ([1]; N-acylated derivative): even more active
9 | O=C(CCCC[C@@H]1SC[C@@H]2NC(=O)N[C@@H]21)NC1(c2ccccc2Cl)CCC=CC1=O (stereo partly shown) [VII, 6-biotinoylamino-6-(2-chlorophenyl)-2-cyclohexen-1-one] | – | 12 | 25 | –
10 | Cc1nnc2n1-c1sc(CCC(=O)N3CCOCC3)cc1C(c1ccccc1Cl)=NC2 [WEB 2086, 4-(2-chlorphenyl)-9-methyl-2-[3-(4-morpholinyl)-3-propanon-1-yl]6H-thieno[3,2,f][1,2,4]triazolo[4,3,a,][1,4] diazepin, reference compound] | – | > 200 | > 200 | minimal effective concentration (DAMI cells; [7]): > 200 µM; platelet counts [2]: 140,000-190,000 /µl
11 | O=C1C=CCCC1 [cyclohexenone, reference compound] | – | 200 | 200 | –
12 | CNC1(c2ccccc2Cl)CCCCC1=O (stereo not shown) [ketamine (III), 2-(2-chlorophenyl)-2-(methylamino) cyclohexanone, reference compound] | – | > 200 | > 200 | thrombopoeitic activity in various assays [1]: > 200 µM

From patent EP0623343A1, “Ketamine analogues for the treatment of thrombocytopenia” (GENENTECH, INC., priority 1993, dated 1994)
